Experiments:
[1] = tested on: Ca2+ channels in cultured rat hippocampal neurons; experiment: Whole-cell patch clamp recording of Ca2+ currents in hippocampal neurons; type: cell-based; settings: 10 μM internal
Protocol: The whole-cell configuration of the patch-clamp technique was used to record calcium currents from the cells at room temperature using an EPC-9 amplifier (HEKA, Instrutech Corp.) with the acquisition and analysis program Pulse-PulseFit from HEKA (Lambrecht, Germany). Electrodes were fabricated using a P-87 puller (Sutter Instrument). […] The standard bath recording solution is Ca^2+ and Mg^2+ free HBSS (pH 7.4) containing 10 mM HEPES, 10 mM dextrose, and 4 mM BaCl2. Currents were filtered at 3 kHz, and the inward Ca^2+ currents were recorded from cells held at −90 mV with 10 mV depolarizing steps from −80 mV to 60 mV for 50 ms.

[2] = molecular target: T1, His6-tagged FKBP52 (Homo sapiens, UniProt Q02790); experiment: [3H]-FK506 binding on Ni-chelated FLASH plate
T1 construct: made in house
T1 sequence (Q02790 1-459): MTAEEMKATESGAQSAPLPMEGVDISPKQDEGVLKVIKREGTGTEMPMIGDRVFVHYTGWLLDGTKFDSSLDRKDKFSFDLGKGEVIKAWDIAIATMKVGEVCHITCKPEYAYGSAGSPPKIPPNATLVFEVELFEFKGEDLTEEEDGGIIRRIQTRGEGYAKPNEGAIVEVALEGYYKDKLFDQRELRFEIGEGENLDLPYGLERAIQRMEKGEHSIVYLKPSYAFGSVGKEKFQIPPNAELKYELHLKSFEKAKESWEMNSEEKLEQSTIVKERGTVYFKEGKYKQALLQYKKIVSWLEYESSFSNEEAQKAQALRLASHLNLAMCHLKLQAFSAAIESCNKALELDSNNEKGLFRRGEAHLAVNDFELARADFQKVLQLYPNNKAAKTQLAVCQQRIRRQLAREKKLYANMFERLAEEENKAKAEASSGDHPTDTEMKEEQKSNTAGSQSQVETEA
Protocol: Reactions were carried out in triplicate at 25° C. for 30 min. Kd were calculated using methods described by Carreras (Anal. Biochem. 298, 57-61 (2001)).

[3] = tested on: rat cortical neuron cultures; experiment: Transcriptional profiling of cortical neuron cultures; type: cell-based; settings: 10 μM
Protocol: Cortical neuron cultures were prepared from E16 rat embryos. After plating for 24 hrs, cultures were treated with 10 μM immunophilin ligands and the corresponding vehicle. After treatment for 4 hrs, 12 hrs, 24 hrs and 48 hrs, cells were lysed. Total RNA from each sample was extracted with the RNEASY® Mini Kit (QIAGEN®). Double stranded cDNA was synthesized from 2 μg of each RNA sample using the […]® System (INVITROGEN®), purified, transcribed in vitro to prepare biotinylated cRNA using T7 RNA polymerase in the presence of biotin labeled UTP and CTP. The fragmented cRNAs were hybridized to a Rat Genome 230 2.0 […]® (AFFYMETRIX®, Santa Clara, Calif.) as recommended by the manufacturer. Hybridized arrays were stained according to manufacture protocols on a Fluidics Station 450 and subsequently scanned on an AFFYMETRIX® scanner 3000. The raw data was generated using AFFYMETRIX® MAS 5.0 Software. Transcriptional profiling data were analyzed in Ingenuity.

CO[C@H]1C[C@@H]2CC[C@@H](C)[C@@](O)(O2)C(=O)C(=O)N2CCCCC2C(=O)O[C@H]([C@H](C)C[C@@H]2CC[C@@H](O)[C@H](OC)C2)CC(=O)[C@H](C)/C=C(\C)[C@@H](O)[C@@H](OC)C(=O)[C@H](C)C[C@H](C)C2CC[C@H](/C=C/1C)ON2c1ccccc1 (some centres unmarked) [Rapamycin analogue II, 9,27-dihydroxy-3-{2-[4-hydroxy-3-methoxycyclohexyl]-1-methylethyl}-10,21-dimethoxy-6,8,12,14,20,26-hexamethyl-37-phenyl-4,9,10,12,13,14,15,16,17,18,21,22,23,24,25,26,27,32,33,34,34a-henicosahydro-3H-23,27-epoxy-18,15-(epoxyimino)pyrido[2,1-c][1,4]oxazacyclohentriacontine-1,5,11,28,29(6H, 31H)-pentone]
inhibition of Ca2+ current ([1]; N-type Ca2+ channels blocked, after 10 min): 74.5+/−8.8 | inhibition of the remaining Ca2+ current ([1]; both N- and L-type Ca2+ channels blocked): 21.3+/−4.4% | Kd [2]: 0.48 ± 0.04 nM | fold change vs DMSO, ACTA1 ([3]; ACTA1): −1.6 fold | fold change vs DMSO, ACTA2 ([3]; ACTA2): 1.37 fold | fold change vs DMSO, AKAP5 ([3]; AKAP5): −1.5 fold | fold change vs DMSO, ASPH ([3]; ASPH): −3.27 fold | fold change vs DMSO, ATP2A2 ([3]; ATP2A2): 2 fold | fold change vs DMSO, ATP2B1 ([3]; ATP2B1): 1.81 fold | fold change vs DMSO, ATP2B3 ([3]; ATP2B3): −1.45 fold | fold change vs DMSO, ATP2C1 ([3]; ATP2C1): −1.32 fold | fold change vs DMSO, CABIN1 ([3]; CABIN1): 1.34 fold | fold change vs DMSO, CACNA1B ([3]; CACNA1B): −1.45 fold | fold change vs DMSO, CACNA1C ([3]; CACNA1C): 1.82 fold | fold change vs DMSO, CACNA1D ([3]; CACNA1D): −1.28 fold | fold change vs DMSO, CACNA2D1 ([3]; CACNA2D1): 5.73 fold | fold change vs DMSO, CACNB1 ([3]; CACNB1): −1.14 fold | fold change vs DMSO, CACNG2 ([3]; CACNG2): −2 fold | fold change vs DMSO, CACNG3 ([3]; CACNG3): −2.46 fold | fold change vs DMSO, CALM1 ([3]; CALM1): −1.63 fold | fold change vs DMSO, CALM2 ([3]; CALM2): −1.33 fold | fold change vs DMSO, CALM3 ([3]; CALM3): −1.52 fold | fold change vs DMSO, CALR ([3]; CALR): 1.19 fold | fold change vs DMSO, CAMK1 ([3]; CAMK1): −1.43 fold | fold change vs DMSO, CAMK1G ([3]; CAMK1G): −2.26 fold | fold change vs DMSO, CAMK2A ([3]; CAMK2A): −4.13 fold | fold change vs DMSO, CAMK2B ([3]; CAMK2B): −1.88 fold | fold change vs DMSO, CAMK2D ([3]; CAMK2D): −1.48 fold | fold change vs DMSO, CAMK4 ([3]; CAMK4): −1.33 fold | fold change vs DMSO, CHP ([3]; CHP): 1.54 fold | fold change vs DMSO, CREBBP ([3]; CREBBP): 5.84 fold | fold change vs DMSO, CYP27B1 ([3]; CYP27B1): −1.38 fold | fold change vs DMSO, DHCR7 ([3]; DHCR7): 1.73 fold | fold change vs DMSO, DSCR1 ([3]; DSCR1): −1.82 fold | fold change vs DMSO, DSCR1L1 ([3]; DSCR1L1): −4.73 fold | fold change vs DMSO, EBP ([3]; EBP): 1.32 fold | fold change vs DMSO, FDFT1 ([3]; FDFT1): 1.89 fold | fold change vs DMSO, FDPS ([3]; FDPS): 2.07 fold | fold change vs DMSO, GRIA1 ([3]; GRIA1): −2.16 fold | fold change vs DMSO, GRIA2 ([3]; GRIA2): 2.71 fold | fold change vs DMSO, GRIN1 ([3]; GRIN1): −2.8 fold | fold change vs DMSO, GRIN2B ([3]; GRIN2B): −1.57 fold | fold change vs DMSO, GRIN3A ([3]; GRIN3A): −2.94 fold | fold change vs DMSO, GRINA ([3]; GRINA): −1.2 fold | fold change vs DMSO, HDAC5 ([3]; HDAC5): 1.8 fold | fold change vs DMSO, HDAC6 ([3]; HDAC6): −1.13 fold | fold change vs DMSO, HDAC7A ([3]; HDAC7A): 1.27 fold | fold change vs DMSO, HMGCR ([3]; HMGCR): 2.26 fold | fold change vs DMSO, HTR3A ([3]; HTR3A): −1.64 fold | fold change vs DMSO, IDI1 ([3]; IDI1): 2.85 fold | fold change vs DMSO, ITPR3 ([3]; ITPR3): −1.93 fold | fold change vs DMSO, LSS ([3]; LSS): 13.19 fold | fold change vs DMSO, MAPK1 ([3]; MAPK1): 1.38 fold | fold change vs DMSO, MAPK3 ([3]; MAPK3): −1.19 fold | fold change vs DMSO, MVD ([3]; MVD): 1.81 fold | fold change vs DMSO, MVK ([3]; MVK): 1.6 fold | fold change vs DMSO, MYH1 ([3]; MYH1): −2.17 fold | fold change vs DMSO, MYH6 ([3]; MYH6): −5.93 fold | fold change vs DMSO, MYH7 ([3]; MYH7): −5.88 fold | fold change vs DMSO, MYL6B ([3]; MYL6B): −1.68 fold | fold change vs DMSO, NQO1 ([3]; NQO1): 1.64 fold | fold change vs DMSO, PMVK ([3]; PMVK): 1.25 fold | fold change vs DMSO, PPP3CB ([3]; PPP3CB): −1.27 fold | fold change vs DMSO, PPP3CC ([3]; PPP3CC): −1.27 fold | fold change vs DMSO, PPP3R1 ([3]; PPP3R1): −1.44 fold | fold change vs DMSO, PRKAG1 ([3]; PRKAG1): −1.24 fold | fold change vs DMSO, PRKAR1A ([3]; PRKAR1A): −1.1 fold | fold change vs DMSO, PRKAR1B ([3]; PRKAR1B): −3.18 fold | fold change vs DMSO, PRKAR2A ([3]; PRKAR2A): −1.23 fold | fold change vs DMSO, PRKAR2B ([3]; PRKAR2B): −1.5 fold | fold change vs DMSO, RAP1B ([3]; RAP1B): −1.33 fold | fold change vs DMSO, SC5DL ([3]; SC5DL): 1.94 fold | fold change vs DMSO, SQLE ([3]; SQLE): 1.9 fold | fold change vs DMSO, TPM1 ([3]; TPM1): −2.83 fold | fold change vs DMSO, TPM3 ([3]; TPM3): −1.99 fold | fold change vs DMSO, TRPC1 ([3]; TRPC1): −1.08 fold | fold change vs DMSO, TRPC3 ([3]; TRPC3): −1.95 fold | fold change vs DMSO, TRPC4 ([3]; TRPC4): −5.42 fold | fold change vs DMSO, TRPV6 ([3]; TRPV6): 1.73 fold | fold change, PLAU ([3]; plasminogen activator (PLAU)): −10 fold

— patent US20100196355A1, “Immunophilin Ligands and Methods for Modulating Immunophilin and Calcium Channel Activity” (Wyeth, priority 2007, published 2010)
